{"source": "patent EP0359529B1", "about": "“Method for the control of pneumocystis carinii” (Merck & Co., Inc., priority 1988, dated 1990)", "key": {"P. carinii [1]": {"test_system": "P. carinii", "test": "Similar immunosuppressed rat study, 7 day treatment, cysts per lung counted", "format": "in vivo", "conditions": "immunosuppressed rats; 2 mg/kg injected twice daily for 7 days; vehicle 10% DMSO", "description": "A similar rat study was conducted to determine the antipneumocystis activity of 1-[(4R,5R)-4,5-dihydroxy-N²-[4-(octyloxy)benzoyl]-L-ii ornithine]echinocandin B (Compound IBii). After 6 weeks of immunosuppression the rats were injected twice daily for 7 days with vehicle alone. Compound IBii (2 mg/kg) or Compound IA (2 mg/kg) during which time immunosuppression was continued. At the end of the treatment period the animals were sacrificed and the number of cysts per lung determined. Compound IA reduced the number of cysts by >99% while Compound IBii reduced the cyst counts by approximately 84% (compared to the vehicle control, 10% DMSO)."}, "P. carinii [2]": {"test_system": "P. carinii", "test": "Immunosuppressed rat study of P. carinii infection, two week treatment, lung cysts and parasite nuclei counted", "format": "in vivo, Sprague-Dawley rats", "conditions": "dexamethasone-immunosuppressed rats; two weeks treatment; Compound IA 2 mg i.p. twice daily; TMP-SMZ in drinking water (208 mg TMP and 1.040 g SMZ/liter); controls 3.2 x 10⁸ - 1.5 x 10⁹", "description": "In a representative study employing Compound IA in rats, nine male Sprague-Dawley rats weighing approximately 200 grams each, were immunosupressed by the addition of dexamethasone to the drinking water (2.0 mg/liter) for six weeks to induce the development of P. carinii infections. To enhance the infection the rats were also maintained on a low protein diet. At the beginning of the seventh week the rats were divided into three groups of three rats each. All three groups continued to receive dexamethasone in the drinking water and low protein diet throughout the remainder of the study. The rats in Group I were kept as untreated infected controls, those in Group II were injected intraperitoneally twice daily for two weeks with 0.5 ml of sterile dH₂O containing 2 mg of Compound IA, and those in Group III were treated with trimethoprim-sulfamethoxazole (TMP-SMZ) in the drinking water (208 mg TMP and 1.040 g of SMZ/liter) for two weeks, a known treatment for P. carinii infections. Two rats died early in the experiment. One was from group II (rat 72A) and the other from group III (rat 75A). It was not determined whether they died from Pneumocystis pneumonia. At the end of the two week treatment period (a total of eight weeks of immonosuppression) the animals were sacrificed and the lung tissue removed. […]"}}, "note": "Numbered stars: 1 amine (or outer) side, 2 acyl side, 3 side chain; on linkers, the order of the positions; unused ones are H or OH. Bridge positions count the residues as written; N and C are the ends. Square brackets hold non-standard residues; d marks the D form. Peptide text beside a SMILES is read from it. * marks the point of attachment. ξ: configuration not given here. ξOrn(4R-OH,5R-OH) = O=C(C(C[C@@H](O)[C@@H](O)N[*:3])N[*:1])[*:2]; ξhTyr(3S-OH,4S-OH) = NC(C(=O)O)[C@H](O)[C@@H](O)c1ccc(O)cc1; ξOrn(4,5-diOH) = O=C(C(CC(O)C(O)N[*:3])N[*:1])[*:2]; ξhTyr(βξ-OH,γξ-OH) = NC(C(=O)O)C(O)C(O)c1ccc(O)cc1; Benzoyl(4-octyloxy) = CCCCCCCCOc1ccc(C(=O)*)cc1; X3 = C[C@H]1CN([*:1])C(C(=O)[*:2])[C@H]1O; ξPro(3ξ-OH,4ξ-Me) = CC1CNC(C(=O)O)C1O; X2 = NC(=O)CC(O)C(N[*:1])C(=O)[*:2]; ξPro(4R-OH) = O=C(O)C1C[C@@H](O)CN1; X1 = CCC(C)CC(C)CCCCCCCCC(=O)*; Hyp = O=C(O)[CH]1C[CH](O)CN1; ξT = CC(O)C(N)C(=O)O"}
{"smiles": "CCC(C)CC(C)CCCCCCCCC(=O)NC1CC(O)C(O)NC(=O)C2C(O)C(C)CN2C(=O)C(C(O)CC(N)=O)NC(=O)C(C(O)C(O)c2ccc(O)cc2)NC(=O)C2CC(O)CN2C(=O)C(C(C)O)NC1=O", "note": "(stereo not drawn) [Compound IA] (X1-[ξOrn(4,5-diOH)]T[Hyp][ξhTyr(βξ-OH,γξ-OH)][X2][ξPro(3ξ-OH,4ξ-Me)]; lactam 1-C; configuration not given here)", "values": [{"measurement": "reduction of the number of cysts per lung compared to the vehicle control", "setting": "P. carinii [1]", "value": "> 99", "unit": "%"}, {"measurement": "number of cysts in the lungs", "setting": "P. carinii [2]", "value": "No cysts could be found"}]}
{"smiles": "CCCCCCCCOc1ccc(C(=O)NC2C[C@@H](O)[C@@H](O)NC(=O)C3[C@@H](O)[C@@H](C)CN3C(=O)C(C(C)O)NC(=O)C([C@H](O)[C@@H](O)c3ccc(O)cc3)NC(=O)C3C[C@@H](O)CN3C(=O)C(C(C)O)NC2=O)cc1", "note": "(stereo partly drawn) [Compound IBii, 1-[(4R,5R)-4,5-dihydroxy-N²-[4-(octyloxy)benzoyl]-L-ornithine]echinocandin B] ({Benzoyl(4-octyloxy)}-[ξOrn(4R-OH,5R-OH)][ξT][ξPro(4R-OH)][ξhTyr(3S-OH,4S-OH)][ξT][X3]; lactam 1-C)", "values": [{"measurement": "reduction of the number of cysts per lung compared to the vehicle control", "setting": "P. carinii [1]", "value": "approximately 84%"}]}
